# Where two headings read alike, the source gives them in different places.
# T1: human OCT1 (hOCT1) (Homo sapiens, UniProt O15245)
# T1 sequence (O15245 1-554): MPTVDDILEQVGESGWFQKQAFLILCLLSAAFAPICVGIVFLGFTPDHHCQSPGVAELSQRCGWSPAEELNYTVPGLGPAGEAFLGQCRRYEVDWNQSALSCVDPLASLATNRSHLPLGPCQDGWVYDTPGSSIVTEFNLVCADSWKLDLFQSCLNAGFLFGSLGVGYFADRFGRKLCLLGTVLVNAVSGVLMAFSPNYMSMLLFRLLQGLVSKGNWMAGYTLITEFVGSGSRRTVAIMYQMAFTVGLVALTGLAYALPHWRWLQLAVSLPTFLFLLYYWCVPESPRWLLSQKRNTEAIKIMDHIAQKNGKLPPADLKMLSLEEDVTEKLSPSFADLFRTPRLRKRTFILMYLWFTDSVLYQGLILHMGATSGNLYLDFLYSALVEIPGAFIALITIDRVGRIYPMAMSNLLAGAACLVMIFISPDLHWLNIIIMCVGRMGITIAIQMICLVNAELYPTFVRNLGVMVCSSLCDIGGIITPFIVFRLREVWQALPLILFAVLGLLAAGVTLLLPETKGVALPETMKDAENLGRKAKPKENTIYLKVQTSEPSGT
# T2: hMATE1 (Homo sapiens, UniProt Q96FL8)
# T2 construct: gene SLC47A1; NM_018242.2, stably transfected HEK293 cells
# T2 sequence (Q96FL8 1-570): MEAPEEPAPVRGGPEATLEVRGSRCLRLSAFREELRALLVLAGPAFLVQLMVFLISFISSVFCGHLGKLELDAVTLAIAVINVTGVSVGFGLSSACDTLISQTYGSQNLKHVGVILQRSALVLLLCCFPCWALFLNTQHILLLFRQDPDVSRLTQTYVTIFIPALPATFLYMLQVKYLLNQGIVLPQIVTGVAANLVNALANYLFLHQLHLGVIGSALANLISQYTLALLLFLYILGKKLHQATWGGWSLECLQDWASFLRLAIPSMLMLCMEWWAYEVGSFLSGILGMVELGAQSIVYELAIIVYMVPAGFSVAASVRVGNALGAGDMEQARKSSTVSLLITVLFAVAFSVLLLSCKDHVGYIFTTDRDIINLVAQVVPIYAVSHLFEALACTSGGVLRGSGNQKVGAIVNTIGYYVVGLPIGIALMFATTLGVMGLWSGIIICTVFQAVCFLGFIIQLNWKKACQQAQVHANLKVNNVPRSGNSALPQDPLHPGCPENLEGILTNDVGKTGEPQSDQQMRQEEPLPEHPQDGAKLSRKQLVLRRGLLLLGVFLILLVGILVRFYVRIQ
# T3: mouse Oct1 (mOct1) (Mus musculus, UniProt O08966)
# T3 construct: gene Slc22a1; NM_009202.5, stably transfected HEK293 cells
# T3 sequence (O08966 1-556): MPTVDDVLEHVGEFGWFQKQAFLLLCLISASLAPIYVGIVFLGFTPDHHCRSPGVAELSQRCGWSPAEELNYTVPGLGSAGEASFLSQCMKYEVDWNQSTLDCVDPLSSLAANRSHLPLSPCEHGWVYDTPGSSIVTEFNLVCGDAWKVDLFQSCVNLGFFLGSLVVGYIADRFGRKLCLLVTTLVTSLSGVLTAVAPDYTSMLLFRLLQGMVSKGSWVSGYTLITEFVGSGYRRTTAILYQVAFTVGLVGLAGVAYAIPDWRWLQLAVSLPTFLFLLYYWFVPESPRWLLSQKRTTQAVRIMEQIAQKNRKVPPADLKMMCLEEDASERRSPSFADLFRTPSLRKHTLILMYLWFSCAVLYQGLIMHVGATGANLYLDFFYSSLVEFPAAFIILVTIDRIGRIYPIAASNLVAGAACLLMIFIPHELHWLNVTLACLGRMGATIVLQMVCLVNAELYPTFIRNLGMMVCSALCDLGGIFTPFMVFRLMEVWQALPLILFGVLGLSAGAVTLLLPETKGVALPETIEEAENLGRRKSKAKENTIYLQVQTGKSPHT
# T4: rat Oct1 (rOct1) (Rattus norvegicus, UniProt Q63089)
# T4 construct: gene Slc22a1; NM_012697.1, stably transfected HEK293 cells
# T4 sequence (Q63089 1-556): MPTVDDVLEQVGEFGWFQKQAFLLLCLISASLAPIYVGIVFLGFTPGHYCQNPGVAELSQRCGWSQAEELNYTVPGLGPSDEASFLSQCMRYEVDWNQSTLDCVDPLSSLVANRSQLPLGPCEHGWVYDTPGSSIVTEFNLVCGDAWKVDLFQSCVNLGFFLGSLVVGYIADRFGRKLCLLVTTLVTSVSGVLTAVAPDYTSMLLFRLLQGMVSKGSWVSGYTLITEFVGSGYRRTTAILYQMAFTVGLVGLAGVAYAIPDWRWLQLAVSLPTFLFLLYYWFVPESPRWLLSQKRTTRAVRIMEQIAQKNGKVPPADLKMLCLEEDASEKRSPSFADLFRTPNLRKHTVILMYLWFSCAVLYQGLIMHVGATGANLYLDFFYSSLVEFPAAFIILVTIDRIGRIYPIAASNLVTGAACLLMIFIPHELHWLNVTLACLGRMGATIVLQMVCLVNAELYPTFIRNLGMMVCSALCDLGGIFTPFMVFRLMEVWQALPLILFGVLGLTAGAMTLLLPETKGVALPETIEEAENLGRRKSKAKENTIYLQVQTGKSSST
# What was measured:
# [1] = target: T1, human OCT1 (hOCT1); assay: cell-based; set-up: gene SLC22A1; settings: HEK293, read-out: Inhibitory Effects (%) / hOCT1 / 10 μM
# [2] = inhibition of 3H-MPP uptake in transfected HEK293 cells, % at […]; format: cell-based, Mus musculus; settings: read-out: Inhibitory Effects (%) / hOCT1 / 100 μM
# [3] = target: T2, hMATE1; assay: inhibition of […]-metformin uptake in transfected HEK293 cells, % at […]; format: cell-based; settings: read-out: Inhibitory Effects (%) / hMATE1 / 10 μM
# [4] = target: T3, mouse Oct1 (mOct1); assay: inhibition of 3H-MPP uptake in transfected HEK293 cells; format: cell-based
# [5] = target: T4, rat Oct1 (rOct1); assay: as above; format: cell-based
# [6] = target: T1, human OCT1 (hOCT1); assay: as above; format: cell-based; set-up: gene SLC22A1; NM_003057.2, OCT1*1B allele, stably transfected HEK293 cells
# [7] = substrate: C[n+]1ccc(-c2ccccc2)cc1; assay: concentration-dependent 3H-MPP uptake, Km; format: cell-based, Homo sapiens
# [8] = substrate: C[n+]1ccc(-c2ccccc2)cc1; assay: concentration-dependent 3H-MPP uptake, Km; format: cell-based, Rattus norvegicus
# [9] = substrate: C[n+]1ccc(-c2ccccc2)cc1; assay: concentration-dependent 3H-MPP uptake, Km; format: cell-based, Mus musculus
molecule,measurement,setting,value
Clc1cccc(Cl)c1N=C1NCCN1 [Clonidine],inhibition at 10 µM,[1],73%
C=CCOC(Cn1ccnc1)c1ccc(Cl)cc1Cl (stereo not shown) [Imazalil],inhibition at 10 µM,[2],84%
CC(=O)N1CCN(c2ccc(OCC3COC(Cn4ccnc4)(c4ccc(Cl)cc4Cl)O3)cc2)CC1 (stereo not shown) [Ketoconazol],inhibition at 10 µM,[3],87%
CCN1/C(=C/c2ccc3ccccc3[n+]2CC)C=Cc2ccccc21 [decynium22],IC50,[4],5.3 ± 0.4 µM
same,inhibition at 10 µM,[3],76%
same,IC50,[5],10.5 ± 0.4 µM
same,IC50,[6],12.1 ± 0.8 µM
"human OCT1 (hOCT1) (Homo sapiens) (protein, NM_003057.2, OCT1*1B allele, stably transfected HEK293 cells) MPTVDDILEQVGESGWFQKQAFLILCLLSAAFAPICVGIVFLGFTPDHHCQSPGVAELSQRCGWSPAEELNYTVPGLGPAGEAFLGQCRRYEVDWNQSALSCVDPLASLATNRSHLPLGPCQDGWVYDTPGSSIVTEFNLVCADSWKLDLFQSCLNAGFLFGSLGVGYFADRFGRKLCLLGTVLVNAVSGVLMAFSPNYMSMLLFRLLQGLVSKGNWMAGYTLITEFVGSGSRRTVAIMYQMAFTVGLVALTGLAYALPHWRWLQLAVSLPTFLFLLYYWCVPESPRWLLSQKRNTEAIKIMDHIAQKNGKLPPADLKMLSLEEDVTEKLSPSFADLFRTPRLRKRTFILMYLWFTDSVLYQGLILHMGATSGNLYLDFLYSALVEIPGAFIALITIDRVGRIYPMAMSNLLAGAACLVMIFISPDLHWLNIIIMCVGRMGITIAIQMICLVNAELYPTFVRNLGVMVCSSLCDIGGIITPFIVFRLREVWQALPLILFAVLGLLAAGVTLLLPETKGVALPETMKDAENLGRKAKPKENTIYLKVQTSEPSGT",Km,[7],73 ± 7 µM
"rat Oct1 (rOct1) (Rattus norvegicus) (protein, NM_012697.1, stably transfected HEK293 cells) MPTVDDVLEQVGEFGWFQKQAFLLLCLISASLAPIYVGIVFLGFTPGHYCQNPGVAELSQRCGWSQAEELNYTVPGLGPSDEASFLSQCMRYEVDWNQSTLDCVDPLSSLVANRSQLPLGPCEHGWVYDTPGSSIVTEFNLVCGDAWKVDLFQSCVNLGFFLGSLVVGYIADRFGRKLCLLVTTLVTSVSGVLTAVAPDYTSMLLFRLLQGMVSKGSWVSGYTLITEFVGSGYRRTTAILYQMAFTVGLVGLAGVAYAIPDWRWLQLAVSLPTFLFLLYYWFVPESPRWLLSQKRTTRAVRIMEQIAQKNGKVPPADLKMLCLEEDASEKRSPSFADLFRTPNLRKHTVILMYLWFSCAVLYQGLIMHVGATGANLYLDFFYSSLVEFPAAFIILVTIDRIGRIYPIAASNLVTGAACLLMIFIPHELHWLNVTLACLGRMGATIVLQMVCLVNAELYPTFIRNLGMMVCSALCDLGGIFTPFMVFRLMEVWQALPLILFGVLGLTAGAMTLLLPETKGVALPETIEEAENLGRRKSKAKENTIYLQVQTGKSSST",Km,[8],57 ± 5 µM
"mouse Oct1 (mOct1) (Mus musculus) (protein, NM_009202.5, stably transfected HEK293 cells) MPTVDDVLEHVGEFGWFQKQAFLLLCLISASLAPIYVGIVFLGFTPDHHCRSPGVAELSQRCGWSPAEELNYTVPGLGSAGEASFLSQCMKYEVDWNQSTLDCVDPLSSLAANRSHLPLSPCEHGWVYDTPGSSIVTEFNLVCGDAWKVDLFQSCVNLGFFLGSLVVGYIADRFGRKLCLLVTTLVTSLSGVLTAVAPDYTSMLLFRLLQGMVSKGSWVSGYTLITEFVGSGYRRTTAILYQVAFTVGLVGLAGVAYAIPDWRWLQLAVSLPTFLFLLYYWFVPESPRWLLSQKRTTQAVRIMEQIAQKNRKVPPADLKMMCLEEDASERRSPSFADLFRTPSLRKHTLILMYLWFSCAVLYQGLIMHVGATGANLYLDFFYSSLVEFPAAFIILVTIDRIGRIYPIAASNLVAGAACLLMIFIPHELHWLNVTLACLGRMGATIVLQMVCLVNAELYPTFIRNLGMMVCSALCDLGGIFTPFMVFRLMEVWQALPLILFGVLGLSAGAVTLLLPETKGVALPETIEEAENLGRRKSKAKENTIYLQVQTGKSPHT",Km,[9],36 ± 13 µM

# Reference: article PMC7559834, “Functional and Pharmacological Comparison of Human, Mouse, and Rat Organic Cation Transporter 1 toward Drug and Pesticide Interaction” (International Journal of Molecular Sciences, 2020)
